Laboratory results as given in patent US8471005B2 (Cephalon, Inc., priority 2008, dated 2013).
Where two headings read alike, the source gives them in different places.

Experiments:
[1] = target: T1, JAK2 (Homo sapiens, UniProt O60674); assay: Recombinant Human JAK2 Kinase Assay (TRF); format: biochemical; settings: read-out: JAK2 Potency
T1 construct: host or cells: baculovirus expression system
In short: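 Europium-labelled PY100 antibody reported tyrosine phosphorylation of a Neutravidin-captured biotinyl 15-mer peptide by JAK2 (baculovirus-expressed, 15 ng/ml). Conditions: 20 mM HEPES pH 7.2, 0.2 μM ATP, 1 mM MnCl2, 0.1% BSA, DMSO 2.5% final, 20 min at room temperature.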

[2] = target: T2, ALK (Homo sapiens, UniProt Q9UM73); assay: ALK Kinase Assay (ELISA/TRF, PLC-γ substrate); format: biochemical; settings: read-out: ALK Potency
T2 construct: host or cells: baculovirus expression system
T2 sequence (Q9UM73 19-1620): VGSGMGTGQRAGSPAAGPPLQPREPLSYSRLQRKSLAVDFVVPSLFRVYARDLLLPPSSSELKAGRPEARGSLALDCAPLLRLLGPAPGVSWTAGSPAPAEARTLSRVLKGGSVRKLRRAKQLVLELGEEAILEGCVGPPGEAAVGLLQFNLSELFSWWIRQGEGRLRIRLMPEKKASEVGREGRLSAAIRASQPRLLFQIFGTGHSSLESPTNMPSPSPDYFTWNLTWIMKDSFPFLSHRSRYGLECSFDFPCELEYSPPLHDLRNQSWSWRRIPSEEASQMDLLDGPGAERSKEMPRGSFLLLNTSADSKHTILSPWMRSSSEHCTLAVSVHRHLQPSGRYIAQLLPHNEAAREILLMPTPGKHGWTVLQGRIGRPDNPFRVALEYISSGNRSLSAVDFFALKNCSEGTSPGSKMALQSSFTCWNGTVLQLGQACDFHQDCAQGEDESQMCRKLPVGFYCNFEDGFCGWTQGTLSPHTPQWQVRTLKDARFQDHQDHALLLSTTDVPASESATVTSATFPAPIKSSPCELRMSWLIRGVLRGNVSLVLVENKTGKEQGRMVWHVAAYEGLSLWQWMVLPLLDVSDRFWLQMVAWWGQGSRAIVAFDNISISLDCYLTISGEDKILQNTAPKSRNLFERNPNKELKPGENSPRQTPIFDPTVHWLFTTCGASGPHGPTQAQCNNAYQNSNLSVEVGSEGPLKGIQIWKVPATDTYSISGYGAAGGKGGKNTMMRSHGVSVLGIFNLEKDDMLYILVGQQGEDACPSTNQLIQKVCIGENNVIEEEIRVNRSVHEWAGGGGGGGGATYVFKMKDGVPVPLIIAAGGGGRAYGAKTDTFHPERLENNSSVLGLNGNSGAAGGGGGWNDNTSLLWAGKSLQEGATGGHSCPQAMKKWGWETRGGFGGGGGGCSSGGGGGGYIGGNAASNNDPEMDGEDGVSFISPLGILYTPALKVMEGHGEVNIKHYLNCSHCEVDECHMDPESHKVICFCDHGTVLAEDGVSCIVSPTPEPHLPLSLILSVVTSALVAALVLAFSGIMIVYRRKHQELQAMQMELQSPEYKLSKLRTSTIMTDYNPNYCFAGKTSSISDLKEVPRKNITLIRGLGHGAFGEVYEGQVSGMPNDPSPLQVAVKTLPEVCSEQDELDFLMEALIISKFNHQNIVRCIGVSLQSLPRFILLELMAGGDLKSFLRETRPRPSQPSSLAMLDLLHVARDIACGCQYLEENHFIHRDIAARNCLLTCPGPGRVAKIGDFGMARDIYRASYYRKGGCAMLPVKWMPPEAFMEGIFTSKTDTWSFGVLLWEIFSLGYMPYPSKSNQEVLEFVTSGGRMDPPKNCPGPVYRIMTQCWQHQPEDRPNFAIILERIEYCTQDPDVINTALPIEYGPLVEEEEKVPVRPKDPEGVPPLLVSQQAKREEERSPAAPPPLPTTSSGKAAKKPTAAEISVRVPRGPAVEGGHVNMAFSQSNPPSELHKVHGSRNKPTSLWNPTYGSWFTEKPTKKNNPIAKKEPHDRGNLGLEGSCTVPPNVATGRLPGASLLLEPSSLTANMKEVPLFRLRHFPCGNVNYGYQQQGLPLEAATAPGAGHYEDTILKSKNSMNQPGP
In short: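 Wells were coated with 10 μg/mL phospholipase C-γ substrate in TBS, and the reaction was started by adding 30 ng/ml ALK enzyme and run at 37° C for 15 minutes. Phosphorylated product was detected with Eu-N1-labeled PT66 antibody, and IC50 values came from sigmoidal variable-slope fits of percent inhibition against log concentration.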

[3] = JAK2 kinase inhibition, 0.2 μM ATP
[4] = ALK kinase inhibition, 1 μM ATP

T1 sequence (O60674 whole entry): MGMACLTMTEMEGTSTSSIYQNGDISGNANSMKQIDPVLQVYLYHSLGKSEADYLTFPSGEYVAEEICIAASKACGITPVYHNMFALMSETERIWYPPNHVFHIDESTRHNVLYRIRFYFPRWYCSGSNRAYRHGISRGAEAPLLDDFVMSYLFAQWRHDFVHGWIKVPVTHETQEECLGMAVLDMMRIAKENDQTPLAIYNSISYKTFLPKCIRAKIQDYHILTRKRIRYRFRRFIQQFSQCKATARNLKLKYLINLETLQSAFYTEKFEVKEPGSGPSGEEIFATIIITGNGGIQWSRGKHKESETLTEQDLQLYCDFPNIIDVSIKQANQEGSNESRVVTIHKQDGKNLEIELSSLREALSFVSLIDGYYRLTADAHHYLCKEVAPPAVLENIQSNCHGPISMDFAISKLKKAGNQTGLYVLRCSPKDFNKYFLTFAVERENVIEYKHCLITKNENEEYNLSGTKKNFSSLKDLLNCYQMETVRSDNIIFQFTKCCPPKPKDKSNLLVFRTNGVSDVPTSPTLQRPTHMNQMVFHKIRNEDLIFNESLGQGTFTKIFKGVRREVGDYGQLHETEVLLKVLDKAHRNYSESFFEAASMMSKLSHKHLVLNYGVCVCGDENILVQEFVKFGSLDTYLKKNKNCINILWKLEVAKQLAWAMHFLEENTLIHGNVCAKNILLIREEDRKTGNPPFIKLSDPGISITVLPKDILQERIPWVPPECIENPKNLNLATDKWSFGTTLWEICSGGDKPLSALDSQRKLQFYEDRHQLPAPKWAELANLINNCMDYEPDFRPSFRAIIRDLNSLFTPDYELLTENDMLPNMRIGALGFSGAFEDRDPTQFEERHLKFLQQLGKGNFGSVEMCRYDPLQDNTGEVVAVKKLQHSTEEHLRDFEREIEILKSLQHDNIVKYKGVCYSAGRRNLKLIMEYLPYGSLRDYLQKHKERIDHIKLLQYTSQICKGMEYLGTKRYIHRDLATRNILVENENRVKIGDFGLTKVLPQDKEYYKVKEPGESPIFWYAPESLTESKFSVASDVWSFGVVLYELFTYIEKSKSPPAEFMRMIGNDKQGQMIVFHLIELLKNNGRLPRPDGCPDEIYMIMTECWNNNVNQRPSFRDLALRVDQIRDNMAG

| Compound | IC50 [1, 3] [nM] | IC50 [2, 4] [nM] | IC50 ([1]; JAK2 Kinase Inhibition) [nM] | IC50 ([2]; ALK Kinase Inhibition) [nM] |
| --- | --- | --- | --- | --- |
| CN1CCN(c2cccc(Nc3ncc4ccc(-c5cccc(CCC#N)c5)n4n3)c2)CC1 [Example 1153, 3-(3-{2-[3-(4-Methyl-piperazin-1-yl)-phenylamino]-pyrrolo[2,1-f][1,2,4]triazin-7-yl}-phenyl)-propionitrile] | < 100 | < 100 |  |  |
| COc1cc(N2CCC(N3CCOCC3)CC2)ccc1Nc1ncc2ccc(-c3ccccc3C(F)(F)F)n2n1 [Example 1464, [2-Methoxy-4-(4-morpholin-4-yl-piperidin-1-yl)-phenyl]-[7-(2-trifluoromethyl-phenyl)-pyrrolo[2,1-f][1,2,4]triazin-2-yl]-amine] |  |  | 100 to 1000 | < 100 |
| CCN(CC)C1CCN(c2ccc(Nc3ncc4ccc(-c5ccccc5OC)n4n3)cc2)CC1 [Example 1138, [4-(4-Diethylamino-piperidin-1-yl)-phenyl]-[7-(2-methoxy-phenyl)-pyrrolo[2,1-f][1,2,4]triazin-2-yl]-amine] | < 100 | < 100 |  |  |
| COc1ccccc1-c1c(Br)c(Br)c2cnc(Nc3ccc(N4CCOCC4)cc3)nn12 [Example 110, [5,6-Dibromo-7-(2-methoxy-phenyl)-pyrrolo[2,1-f][1,2,4]triazin-2-yl]-(4-morpholin-4-yl-phenyl)-amine] |  |  | < 100 | > 10000 |
| c1cncc(-c2ccc3cnc(Nc4cccc(N5CCOCC5)c4)nn23)c1 [Example 309, (3-Morpholin-4-yl-phenyl)-(7-pyridin-3-yl-pyrrolo[2,1-f][1,2,4]triazin-2-yl)-amine] |  |  | < 100 | 1000 to 10000 |
| COc1cc(N2CCCN(C3CCN(C)CC3)CC2)ccc1Nc1ncc2ccc(-c3ccccc3OC)n2n1 [Example 789, {2-Methoxy-4-[4-(1-methyl-piperidin-4-yl)-[1,4]diazepan-1-yl]-phenyl}-[7-(2-methoxy-phenyl)-pyrrolo[2,1-f][1,2,4]triazin-2-yl]-amine] | 100 to 1000 | < 100 |  |  |
| Fc1cccc(-c2ccc3cnc(Nc4cccc(N5CCOCC5)c4)nn23)c1 [Example 175, [7-(3-Fluoro-phenyl)-pyrrolo[2,1-f][1,2,4]triazin-2-yl]-(3-morpholin-4-yl-phenyl)-amine] |  |  | < 100 | 100 to 1000 |
| CC(=O)N1CCCC(C)(C)c2ccc(Nc3ncc4ccc(-c5cccc(NS(C)(=O)=O)c5)n4n3)cc21 [Example 1365, N-{3-[2-(1-Acetyl-5,5-dimethyl-2,3,4,5-tetrahydro-1H-benzo[b]azepin-8-ylamino)-pyrrolo[2,1-f][1,2,4]triazin-7-yl]-phenyl}-methanesulfonamide] | < 100 | 1000 to 10000 |  |  |
| COc1cc(CN2CCC(O)CC2)ccc1Nc1ncc2ccc(-c3ccccc3N(C)S(C)(=O)=O)n2n1 [Example 1234, N-(2-{2-[4-(4-Hydroxy-piperidin-1-ylmethyl)-2-methoxy-phenylamino]-pyrrolo[2,1-f][1,2,4]triazin-7-yl}-phenyl)-N-methyl-methanesulfonamide] | 1000 to 10000 | < 100 |  |  |
| CNC(=O)c1ccc(-c2ccc3cnc(Nc4ccc(N5CCC(N6CCN(C)CC6)CC5)cc4OC)nn23)cc1 [Example 242, 4-(2-{2-Methoxy-4-[4-(4-methyl-piperazin-1-yl)-piperidin-1-yl]-phenylamino}-pyrrolo[2,1-f][1,2,4]triazin-7-yl)-N-methyl-benzamide] |  |  | < 100 | < 100 |
| CS(=O)(=O)c1ccc(-c2ccc3cnc(Nc4ccc5c(c4)NC(=O)C(NC(=O)C(F)(F)F)CC5)nn23)cc1 (stereo not shown) [Example 1174, 2,2,2-Trifluoro-N-{8-[7-(4-methanesulfonyl-phenyl)-pyrrolo[2,1-f][1,2,4]triazin-2-ylamino]-2-oxo-2,3,4,5-tetrahydro-1H-benzo[b]azepin-3-yl}-acetamide] | < 100 | > 10000 |  |  |
| COc1cc(N2CCCN(C[C@@H](C)O)CC2)ccc1Nc1ncc2ccc(-c3ccccc3OC)n2n1 [Example 766, (R)-1-(4-{3-Methoxy-4-[7-(2-methoxy-phenyl)-pyrrolo[2,1-f][1,2,4]triazin-2-ylamino]-phenyl}-[1,4]diazepan-1-yl)-propan-2-ol] | < 100 | < 100 |  |  |
| COc1cc(C2CCN(C(=O)OC(C)(C)C)CC2)ccc1Nc1ncc2ccc(-c3ccccc3N(C)S(C)(=O)=O)n2n1 [Example 818, 4-(4-{7-[2-(Methanesulfonyl-methyl-amino)-phenyl]-pyrrolo[2,1-f][1,2,4]triazin-2-ylamino}-3-methoxy-phenyl)-piperidine-1-carboxylic acid tert-butyl ester] | > 10000 | 100 to 1000 |  |  |
| COc1cc2c(cc1Nc1ncc3ccc(-c4cccc(S(=O)(=O)NC5CC5)c4)n3n1)CCN(C[C@@H](C)O)CC2 [Example 523, N-Cyclopropyl-3-{2-[3-((R)-2-hydroxy-propyl)-8-methoxy-2,3,4,5-tetrahydro-1H-benzo[d]azepin-7-ylamino]-pyrrolo[2,1-f][1,2,4]triazin-7-yl}benzenesulfonamide] | 100 to 1000 | < 100 |  |  |
| COc1cccc(F)c1-c1ccc2cnc(Nc3ccc(C4CCN(CC(N)=O)CC4)cc3)nn12 [Example 1353, 2-(4-{4-[7-(2-Fluoro-6-methoxy-phenyl)-pyrrolo[2,1-f][1,2,4]triazin-2-ylamino]-phenyl}-piperidin-1-yl)-acetamide] | < 100 | < 100 |  |  |
| CN1CCN(c2ccc(Nc3ncc4ccc(C5CCCCC5)n4n3)cc2)CC1 [Example 123, (7-Cyclohexyl-pyrrolo[2,1-f][1,2,4]triazin-2-yl)-[4-(4-methyl-piperazin-1-yl)-phenyl]-amine] |  |  | < 100 | 100 to 1000 |
| c1ccc(-c2ccc3cnc(Nc4ccc(N5CCOCC5)nc4)nn23)cc1 [Example 46, (6-Morpholin-4-yl-pyridin-3-yl)-(7-phenyl-pyrrolo[2,1-f][1,2,4]triazin-2-yl)-amine] |  |  | < 100 | 1000 to 10000 |
| CN1CCN(C(=O)c2cccc(Nc3ncc4ccc(-c5ccc(S(C)(=O)=O)cc5)n4n3)c2)CC1 [Example 342, {3-[7-(4-Methanesulfonyl-phenyl)-pyrrolo[2,1-f][1,2,4]triazin-2-ylamino]-phenyl}-(4-methyl-piperazin-1-yl)-methanone] |  |  | < 100 | 1000 to 10000 |
| CC(C)(C)NS(=O)(=O)c1cccc(-c2ccc3cnc(Nc4cccc(C(=O)O)c4)nn23)c1 [Example 895, 3-[7-(3-tert-Butylsulfamoyl-phenyl)-pyrrolo[2,1-f][1,2,4]triazin-2-ylamino]-benzoic acid] | < 100 | 1000 to 10000 |  |  |
| [4-(4-Diethylamino-piperidin-1-yl)-phenyl]-[7-(4-methanesulfonyl-phenyl)-pyrrolo[2,1-f][1,2,4]triazin-2-yl]-amine [Example 1136] | < 100 | 100 to 1000 |  |  |
| COc1cc2c(cc1Nc1ncc3ccc(-c4ccccc4N(C)S(C)(=O)=O)n3n1)CN(C(C)C)C2 [Example 876, N-{2-[2-(2-Isopropyl-6-methoxy-2,3-dihydro-1H-isoindol-5-ylamino)-pyrrolo[2,1-f][1,2,4]triazin-7-yl]-phenyl}-N-methyl-methanesulfonamide] | 100 to 1000 | < 100 |  |  |
| CCN(CC)C(=O)c1ccccc1-c1ccc2cnc(Nc3ccc(N4CCN(C)CC4)cc3)nn12 [Example 407, N,N-Diethyl-2-{2-[4-(4-methyl-piperazin-1-yl)-phenylamino]-pyrrolo[2,1-f][1,2,4]triazin-7-yl}-benzamide] |  |  | < 100 | 100 to 1000 |
| N-{2-tert-Butyl-5-[7-(5-chloro-2-methoxy-phenyl)-pyrrolo[2,1-f][1,2,4]triazin-2-ylamino]-phenyl}-acetamide [Example 305] |  |  | < 100 | 100 to 1000 |
| COc1ncccc1-c1ccc2cnc(Nc3ccc(N4CCOCC4)cc3)nn12 [Example 16, [7-(2-Methoxy-pyridin-3-yl)-pyrrolo[2,1-f][1,2,4]triazin-2-yl]-(4-morpholin-4-yl-phenyl)-amine] |  |  | < 100 | 100 to 1000 |
| OCCN1CCN(c2ccc(Nc3ncc4ccc(-c5cccc(Cl)c5)n4n3)cc2)CC1 [Example 1134, 2-(4-{4-[7-(3-Chloro-phenyl)-pyrrolo[2,1-f][1,2,4]triazin-2-ylamino]-phenyl}-piperazin-1-yl)-ethanol] | < 100 | < 100 |  |  |
| CN1CCN(c2ccc(Nc3ncc4cc(-c5ccncc5)cn4n3)cc2)CC1 [Example 1158] | < 100 | > 10000 |  |  |
| CN1CCC(c2ccc(Nc3ncc4ccc(-c5cccc(Cl)c5)n4n3)cc2)CC1 [Example 1131, [7-(3-Chloro-phenyl)-pyrrolo[2,1-f][1,2,4]triazin-2-yl]-[4-(1-methyl-piperidin-4-yl)-phenyl]-amine] | < 100 | < 100 |  |  |
| CN1CCN(c2cccc(Nc3ncc4ccc(-c5cnn(CC(N)=O)c5)n4n3)c2)CC1 [Example 978, 2-(4-{2-[3-(4-Methyl-piperazin-1-yl)-phenylamino]-pyrrolo[2,1-f][1,2,4]triazin-7-yl}-pyrazol-1-yl)-acetamide] | < 100 | 100 to 1000 |  |  |
| CC(=O)N1CCOc2ccc(Nc3ncc4ccc(-c5ccccc5N(C)S(C)(=O)=O)n4n3)cc21 [Example 1374, N-{2-[2-(4-Acetyl-3,4-dihydro-2H-1,4-benzoxazin-6-ylamino)-pyrrolo[2,1-f][1,2,4]triazin-7-yl]-phenyl}-N-methyl-methanesulfonamide] |  |  | < 100 | 100 to 1000 |
